For one compound, IC50 and inhibition results are on record in US20230147257A1 (DONG-A ST CO., LTD., priority 2020, published 2023).

Molecules are shown by their SMILES. Like-named read-outs stand apart in the source and are kept apart here.

Assay [1] addresses T1, AhR (Mus musculus, UniProt P30561).
T1 sequence (P30561 1-848): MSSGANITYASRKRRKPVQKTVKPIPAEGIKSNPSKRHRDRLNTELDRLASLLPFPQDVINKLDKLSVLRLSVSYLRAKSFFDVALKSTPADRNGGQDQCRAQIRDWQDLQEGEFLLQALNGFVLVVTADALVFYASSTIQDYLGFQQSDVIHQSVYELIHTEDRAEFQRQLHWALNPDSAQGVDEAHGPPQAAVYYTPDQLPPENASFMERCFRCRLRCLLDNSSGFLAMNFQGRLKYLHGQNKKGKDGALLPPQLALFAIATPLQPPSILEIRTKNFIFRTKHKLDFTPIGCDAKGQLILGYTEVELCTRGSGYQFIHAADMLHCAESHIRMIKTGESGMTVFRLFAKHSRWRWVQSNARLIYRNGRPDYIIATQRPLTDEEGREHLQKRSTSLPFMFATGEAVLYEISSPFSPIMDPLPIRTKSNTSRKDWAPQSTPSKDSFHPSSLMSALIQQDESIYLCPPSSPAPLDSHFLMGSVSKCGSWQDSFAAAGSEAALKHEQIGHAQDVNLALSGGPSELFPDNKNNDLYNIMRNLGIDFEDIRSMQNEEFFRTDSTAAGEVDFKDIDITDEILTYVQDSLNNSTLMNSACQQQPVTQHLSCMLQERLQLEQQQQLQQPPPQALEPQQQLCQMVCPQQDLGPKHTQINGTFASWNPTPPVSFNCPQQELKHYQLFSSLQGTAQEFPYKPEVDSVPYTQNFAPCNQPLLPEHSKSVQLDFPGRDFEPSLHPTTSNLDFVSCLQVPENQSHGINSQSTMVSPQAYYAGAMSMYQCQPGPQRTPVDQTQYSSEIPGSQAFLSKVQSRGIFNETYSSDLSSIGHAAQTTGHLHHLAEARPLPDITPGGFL
Kind of assay: In vitro assay 2: XRE-luciferase reporter assay, antagonism in mouse cell line (Hepa1c1c7). It is filed as cell-based. The note with it: Hepa1c1c7 XRE-Luc, cells treated with kynurenine (#), 6 hours. The text has this: In Vitro XRE-Luciferase Reporter Assay (In Vitro Assay 1, 2, 3)
AhR activation leads the induction of target gene expression such as CYP1A1 and CYP1B1 by AhR binding to AhR-responsive DNA elements also known as xenobiotics responsive elements (XRE). The assay for measuring AhR activity herein is the luciferase assay using cell lines transfected with luciferase reporter plasmid containing XREs at the upstream of the reporter gene. Cells transfected with XRE-luciferase reporter (XRE-Luc) plasmid drive luciferase activity reflecting activation and inhibition of AhR in the cells. In addition to transfection with XRE-reporter vector, cells were co-transfected with Nano-luciferase reporter gene construct (Nano-Luc) containing constitutively active promoter as internal control. Kynurenine (an endogenous AhR agonist) was used to stimulate cells to test antagonistic properties of the compounds. The half-maximal inhibitory concentration (IC50) or half-maximal effective concentration (EC50) value was calculated using nonlinear regression (four parameters) with Prism8.0 software (GraphPad).
In Vitro Assay 2: Antagonism in Mouse Cell Line
Hepa1c1c7 (murine liver cancer cell line) cells co-transfected with XRE-Luc and Nano-Luc plasmids were plated in complete medium and incubated overnight at 37° C. in a CO2 incubator. Following incubation, cells were treated with AhR activating ligands such as kynurenic acid, kynurenine(#) with or without test compounds for 6 hours. Firefly luciferase and Nano-luciferase activity was measured using Nano-glo Luciferase kit (Promega) and relative luciferase activity (Firefly/Nano-Luc) was used to calculate IC50 values. The relative luciferase activity was further normalized with agonists alone group as the maximum control and the vehicle group as the minimum control. (IC50 Values are grouped as A, B, C and D, whereby A: IC50<0.01 μM; B: 0.01<IC50<0.1 μM; C: 0.1<IC50<1.0 μM; D: IC50>1.0 μM)
A general note: In a reporter assay the amount or activity of a reporter protein is the signal.

Assay [2] addresses T2, AhR (Homo sapiens, UniProt P35869).
T2 construct: host or cells: HepG2
T2 sequence (P35869 11-848): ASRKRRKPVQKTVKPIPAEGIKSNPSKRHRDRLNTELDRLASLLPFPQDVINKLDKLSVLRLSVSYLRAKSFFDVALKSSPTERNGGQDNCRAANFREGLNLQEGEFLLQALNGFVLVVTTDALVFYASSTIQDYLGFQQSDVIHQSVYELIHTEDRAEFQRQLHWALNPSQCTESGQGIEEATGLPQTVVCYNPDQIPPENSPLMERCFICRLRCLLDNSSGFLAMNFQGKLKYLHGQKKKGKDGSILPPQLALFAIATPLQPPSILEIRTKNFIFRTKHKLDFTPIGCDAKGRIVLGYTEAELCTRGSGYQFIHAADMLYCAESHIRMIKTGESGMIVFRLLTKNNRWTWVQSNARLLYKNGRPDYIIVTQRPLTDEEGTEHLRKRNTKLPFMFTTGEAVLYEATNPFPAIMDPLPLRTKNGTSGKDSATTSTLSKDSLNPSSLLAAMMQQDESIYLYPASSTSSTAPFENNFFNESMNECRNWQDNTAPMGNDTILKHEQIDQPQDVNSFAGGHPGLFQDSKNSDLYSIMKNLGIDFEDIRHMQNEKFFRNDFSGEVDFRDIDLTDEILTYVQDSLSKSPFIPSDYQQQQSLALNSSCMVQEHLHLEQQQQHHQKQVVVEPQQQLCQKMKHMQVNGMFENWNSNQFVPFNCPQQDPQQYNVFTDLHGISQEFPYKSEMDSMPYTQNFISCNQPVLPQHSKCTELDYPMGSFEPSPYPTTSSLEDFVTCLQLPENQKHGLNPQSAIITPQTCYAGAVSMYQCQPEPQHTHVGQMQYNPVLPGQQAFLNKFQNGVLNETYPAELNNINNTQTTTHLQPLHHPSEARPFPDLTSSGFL
Kind of assay: In vitro assay 4: endogenous AhR activity assay (CYP1A1 and CYP1B1 mRNA, qRT-PCR, HepG2 cells). It counts as cell-based. The note with it: TCDD 10 nM with compound 123 nM, 4 hours, mRNA relative to β-actin. As to the method:
In Vitro Assay 4: Endogenous AhR Activity Assay
HepG2 cells were seeded in 12-well plate (3×10^5 cells/well). A day after seeding, the cells were treated with TCDD (10 nM) alone or with compounds (123 nM) for 4 hours. Total RNA was extracted using Trizol (Thermo Fisher Scientific). cDNA synthesis and quantitative RT-PCR (qRT-PCR) assays were performed using PrimeScript™ RT Master Mix (TAKARA) and TB Green™ Premix Ex Taq™ II (TAKARA) in accordance with manufacturer's instruction. For the measurement of endogenous AhR activity, relative mRNA levels of CYP1A1 and CYP1B1 were quantitated relative to β(beta)-actin mRNA by the comparative Ct (ΔΔCt) method. The percent inhibitions were calculated according to: […]
(In qPCR the cycle at which signal appears reflects the starting amount.)

A word on the IC50: it is the midpoint of a concentration-inhibition curve. Higher therefore signals weaker potency in that assay. The inhibition is how much of the control response was suppressed. On AhR [1], `CC(CO)n1cnc2c(-c3cccnc3)nc(-c3ccc(Cl)cc3)cc2c1=O` (stereo not drawn) [Example 46, 6-(4-chlorophenyl)-3-(1-hydroxypropan-2-yl)-8-(pyridin-3-yl)pyrido[3,4-d]pyrimidin-4(3H)-one] displayed an IC50 of under 10 nM. The inhibition at 0.123 µM is 90.7% on AhR [2] (read-out: CYP1A1 (% Inhibition)) and 99.1% on AhR [2] (read-out: CYP1B1 (% Inhibition)).
